Consider eight compounds from patent US20260098061A1, “EPHA2-BINDING PENDING PEPTIDE AND COMPOSITION COMPRISING SAME” (PeptiDream Inc., priority 2022, published 2026).

For the assay, the target named is T1, Recombinant Human EphA2 Fc Protein (Homo sapiens, UniProt P29317).
T1 construct: purchased Elabscience
In words: SPR interaction analysis (Biacore T200), kinetics of peptides against EphA2. In kind it is binding. The conditions noted are these: Recombinant Human EphA2 Fc Protein captured by Human Antibody Capture kit; single-cycle kinetics; 25° C.; HBS-P+ buffer with 1% DMSO. As for the experimental part:
Example 14 Interaction Analysis by SPR was Performed Using Biacore (Cytiva)
SPR assay was performed using Biacore T200 (Cytiva).
The HBS-P+ buffer (10 mM HEPES (pH7.4), 150 mM NaCl, 0.05% (v/V) Surfactant P20) containing 1% DMSO was used as running buffer. Recombinant Human EphA2 Fc Protein (Fc tag, Elabscience) was captured by Human Antibody Capture kit (Cytiva). Peptide samples in DMSO were diluted with running buffer, and prepared five serial dilutions. Using these serial dilutions, kinetics of peptides against EphA2 was measured at a flow rate of 30 mL/min at 25° C. The method adopted for sample measurement was a single-cycle kinetics method. The analysis was conducted using the evaluation software 3.0 provided with Biacore T200. Kinetics fitting was done on the difference data obtained by subtracting the baseline data from sample measurement data. KD values were calculated based on the association rate constant (ka) and dissociation rate constant (kd).

Numbered stars: 1 amine (or outer) side, 2 acyl side, 3 side chain; on linkers, the order of the positions; unused ones are H or OH. Bridge positions count the residues as written; N and C are the ends. Square brackets hold non-standard residues; d marks the D form. Side chains are listed from the residue outwards. Peptide text beside a SMILES is read from it. * marks the point of attachment. X1 = CC(C)C[C@H](CC(=O)[C@H](CC(N)=O)N[*:1])C(=O)[*:2]; Piperazinyl(4-CH2COOH) = O=C(O)CN1CCN(*)CC1; Trp(1-Me) = Cn1cc(C[C@H](N)C(=O)O)c2ccccc21; NMe3Pal = CN[C@@H](Cc1cccnc1)C(=O)O; NMeF = CN[C@@H](Cc1ccccc1)C(=O)O; NMeE = CN[C@@H](CCC(=O)O)C(=O)O; Aad = N[C@@H](CCCC(=O)O)C(=O)O; CO = O=C([*:1])[*:2]; βAla = NCCC(=O)O

In the case of `CC(C)C[C@@H]1NC(=O)[C@H](CC(N)=O)NC(=O)[C@H](Cc2ccccc2)N(C)C(=O)[C@@H](C)NC(=O)CSC[C@@H](C(N)=O)NC(=O)[C@H](CCC(=O)O)NC(=O)[C@H]([C@@H](C)O)NC(=O)[C@H](Cc2cn(C)c3ccccc23)NC(=O)[C@H](C(C)C)NC(=O)[C@H](Cc2cn(C)c3ccccc23)NC(=O)[C@H](Cc2ccccc2)N(C)C(=O)[C@H](CCCC(=O)O)NC1=O` [PDC_EphA2-00001417, da-MeF-N-L-Hgl-MeF-W1Me-V-W1Me-T-E-C-NH2] ({CH2CO}-[dA][NMeF]NL[Aad][NMeF][Trp(1-Me)]V[Trp(1-Me)]TEC-NH2; thioether N-12), the Kd (usually a measure of binding affinity in units of concentration) was in the range of 1 to 10 nM. The result for `CC(=O)NCCCC[C@@H](NC(=O)CCNC(=O)[C@@H]1CSCC(=O)N[C@H](C)C(=O)N(C)[C@@H](Cc2cccnc2)C(=O)N[C@@H](CC(N)=O)C(=O)N[C@@H](CC(C)C)C(=O)N[C@@H](CCCC(N)=O)C(=O)N(C)[C@@H](CCC(=O)O)C(=O)N[C@@H](Cc2cn(C)c3ccccc23)C(=O)N[C@@H](CCCCNC(=O)N2CCN(CC(=O)O)CC2)C(=O)N[C@@H](Cc2cn(C)c3ccccc23)C(=O)N[C@@H]([C@@H](C)O)C(=O)N[C@@H](CCCC(N)=O)C(=O)N1)C(N)=O` [PDC_EphA2-00007196, da-Me3Py-N-L-Hgn-MeE-W1Me-KCOpipzaa-W1Me-T-Hgn-C-bA-dkAc-NH2] ({CH2CO}-[dA][NMe3Pal]NL[Aad](NH2)[NMeE][Trp(1-Me)]K([CO-Piperazinyl(4-CH2COOH)])[Trp(1-Me)]T[Aad](NH2)C[βAla][dK](Ac)-NH2; thioether N-12) reads below 1 nM; that for `CC(=O)NCCCC[C@@H](NC(=O)CCNC(=O)[C@@H]1CSCC(=O)N[C@H](C)C(=O)N(C)[C@@H](Cc2ccccc2)C(=O)N[C@@H](CC(N)=O)C(=O)N[C@@H](CC(C)C)C(=O)N[C@@H](CCCC(=O)O)C(=O)N(C)[C@@H](Cc2ccccc2)C(=O)N[C@@H](Cc2cn(C)c3ccccc23)C(=O)N[C@@H](C(C)C)C(=O)N[C@@H](Cc2cn(C)c3ccccc23)C(=O)N[C@@H]([C@@H](C)O)C(=O)N[C@@H](CCC(=O)O)C(=O)N1)C(N)=O` [PDC_EphA2-00008082, da-MeF-N-L-Hgl-MeF-W1Me-V-W1Me-T-E-C-bA-dkAc-NH2] ({CH2CO}-[dA][NMeF]NL[Aad][NMeF][Trp(1-Me)]V[Trp(1-Me)]TEC[βAla][dK](Ac)-NH2; thioether N-12), below 1 nM; that for `CC(=O)NCCCC[C@@H](NC(=O)CCNC(=O)[C@@H]1CSCC(=O)N[C@H](C)C(=O)N(C)[C@@H](Cc2cccnc2)C(=O)N[C@@H](CC(N)=O)C(=O)C[C@@H](CC(C)C)C(=O)N[C@@H](CCCC(=O)O)C(=O)N(C)[C@@H](Cc2ccccc2)C(=O)N[C@@H](Cc2cn(C)c3ccccc23)C(=O)N[C@@H](C(C)C)C(=O)N[C@@H](Cc2cn(C)c3ccccc23)C(=O)N[C@@H]([C@@H](C)O)C(=O)N[C@@H](CCC(=O)O)C(=O)N1)C(N)=O` [PDC_EphA2-00008083, da-Me3Py-N-L-Hgl-MeF-W1Me-V-W1Me-T-E-C-bA-dkAc-NH2] ({CH2CO}-[dA][NMe3Pal][X1][Aad][NMeF][Trp(1-Me)]V[Trp(1-Me)]TEC[βAla][dK](Ac)-NH2; thioether N-11), below 1 nM. Next, `CC(=O)NCCCC[C@@H](NC(=O)CCNC(=O)[C@@H]1CSCC(=O)N[C@H](CCCCNC(=O)N2CCN(CC(=O)O)CC2)C(=O)N(C)[C@@H](Cc2cccnc2)C(=O)N[C@@H](CC(N)=O)C(=O)N[C@@H](CC(C)C)C(=O)N[C@@H](CCCC(=O)O)C(=O)N(C)[C@@H](Cc2ccccc2)C(=O)N[C@@H](Cc2cn(C)c3ccccc23)C(=O)N[C@@H](C(C)C)C(=O)N[C@@H](Cc2cn(C)c3ccccc23)C(=O)N[C@@H]([C@@H](C)O)C(=O)N[C@@H](CCC(=O)O)C(=O)N1)C(N)=O` [PDC_EphA2-00008084, dkCOpipzaa-Me3Py-N-L-Hgl-MeF-W1Me-V-W1Me-T-E-C-bA-dkAc-NH2] ({CH2CO}-[dK]([CO-Piperazinyl(4-CH2COOH)])[NMe3Pal]NL[Aad][NMeF][Trp(1-Me)]V[Trp(1-Me)]TEC[βAla][dK](Ac)-NH2; thioether N-12): 1 to 10 nM; `CC(=O)NCCCC[C@@H](NC(=O)CCNC(=O)[C@@H]1CSCC(=O)N[C@H](CCCCNC(=O)N2CCN(CC(=O)O)CC2)C(=O)N(C)[C@@H](Cc2cccnc2)C(=O)N[C@@H](CC(N)=O)C(=O)N[C@@H](CC(C)C)C(=O)N[C@@H](CCCCNC(=O)N2CCN(CC(=O)O)CC2)C(=O)N(C)[C@@H](Cc2ccccc2)C(=O)N[C@@H](Cc2cn(C)c3ccccc23)C(=O)N[C@@H](C(C)C)C(=O)N[C@@H](Cc2cn(C)c3ccccc23)C(=O)N[C@@H]([C@@H](C)O)C(=O)N[C@@H](CCC(=O)O)C(=O)N1)C(N)=O` [PDC_EphA2-00008085, dkCOpipzaa-Me3Py-N-L-KCOpipzaa-MeF-W1Me-V-W1Me-T-E-C-bA-dkAc-NH2] ({CH2CO}-[dK]([CO-Piperazinyl(4-CH2COOH)])[NMe3Pal]NLK([CO-Piperazinyl(4-CH2COOH)])[NMeF][Trp(1-Me)]V[Trp(1-Me)]TEC[βAla][dK](Ac)-NH2; thioether N-12): 1 to 10 nM. For the compound `CC(=O)NCCCC[C@@H](NC(=O)CCNC(=O)[C@@H]1CSCC(=O)N[C@H](CCCCNC(=O)N2CCN(CC(=O)O)CC2)C(=O)N(C)[C@@H](Cc2cccnc2)C(=O)N[C@@H](CC(N)=O)C(=O)N[C@@H](CC(C)C)C(=O)N[C@@H](CCCCNC(=O)N2CCN(CC(=O)O)CC2)C(=O)N(C)[C@@H](Cc2ccccc2)C(=O)N[C@@H](Cc2cn(C)c3ccccc23)C(=O)N[C@@H](C(C)C)C(=O)N[C@@H](Cc2cn(C)c3ccccc23)C(=O)N[C@@H]([C@@H](C)O)C(=O)N[C@@H](CCCC(N)=O)C(=O)N1)C(N)=O` [PDC_EphA2-00008086, dkCOpipzaa-Me3Py-N-L-KCOpipzaa-MeF-W1Me-V-W1Me-T-Hgn-C-bA-dkAc-NH2] ({CH2CO}-[dK]([CO-Piperazinyl(4-CH2COOH)])[NMe3Pal]NLK([CO-Piperazinyl(4-CH2COOH)])[NMeF][Trp(1-Me)]V[Trp(1-Me)]T[Aad](NH2)C[βAla][dK](Ac)-NH2; thioether N-12), the equilibrium dissociation constant (Kd) was below 1 nM. Next, `CC(=O)NCCCC[C@@H](NC(=O)CCNC(=O)[C@@H]1CSCC(=O)N[C@H](C)C(=O)N(C)[C@@H](Cc2cccnc2)C(=O)N[C@@H](CC(N)=O)C(=O)N[C@@H](CC(C)C)C(=O)N[C@@H](CCCC(=O)O)C(=O)N(C)[C@@H](Cc2ccccc2)C(=O)N[C@@H](Cc2cn(C)c3ccccc23)C(=O)N[C@@H](CCCCNC(=O)N2CCN(CC(=O)O)CC2)C(=O)N[C@@H](Cc2cn(C)c3ccccc23)C(=O)N[C@@H]([C@@H](C)O)C(=O)N[C@@H](CCC(=O)O)C(=O)N1)C(N)=O` [PDC_EphA2-00008087, da-Me3Py-N-L-Hgl-MeF-W1Me-KCOpipzaa-W1Me-T-E-C-bA-dkAc-NH2] ({CH2CO}-[dA][NMe3Pal]NL[Aad][NMeF][Trp(1-Me)]K([CO-Piperazinyl(4-CH2COOH)])[Trp(1-Me)]TEC[βAla][dK](Ac)-NH2; thioether N-12): below 1 nM.
